Here are results for eight molecules from patent US20240025856A1, “1,2,3,4-TETRAHYDROQUINOLINE DERIVATIVES AS INHIBITORS OF THE YAP/TAZ-TEAD ACTIVATION FOR TREATING CANCER” (KATHOLIEKE UNIVERSITEIT LEUVEN, priority 2020, published 2024).

As usually defined, the IC50 is the concentration needed to halve the response being measured. As usually defined, the EC50 is the concentration that produces a half-maximal response.

Assay [1] deals with YAP/TAZ-TEAD transcription. Kind of assay: Reporter gene assay for measuring the inhibition of YAP/TAZ-TEAD transcription (TEAD-responsive element luciferase reporter in Hek293T cells). The conditions noted are these: Homo sapiens, HEK-293T, 24 h, Hek293T cells transiently transfected with TEAD-responsive element luciferase reporter; 24 hours incubation. In kind it is cell-based. An outline of the steps: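 Hek293T cells transiently transfected with a TEAD-responsive element luciferase reporter, plated onto pre-diluted compounds and incubated 24 h at 37 °C/5% CO2. Luminescence read after SteadyLite addition; % inhibition from RLU relative to vehicle (0%) and a positive control inhibitor (100%), giving IC50.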

A further assay has as its system NCI-1H226. Kind of assay: Mesothelioma cell line proliferation assay, H226 (ATPlite). The conditions noted are these: Homo sapiens, NCI-H226, 144 h, 6 days with compound. In kind it is cell-based. The procedure: (§1) Mesothelioma cell lines, NCI-1H226 and NCI-1H2052 (all sourced from the ATCC cell culture collection) are plated in 96-well plates (Corning® 96 Well White Polystyrene Microplate clear flat bottom, white polystyrene (TC-Treated)), at 1500 cells/well in full medium (RPMI 1640 ATCC modification with L-glutamine, HEPES, Phenol Red, Sodium Pyruvate, High glucose, Low sodium bicarbonate and 10% fetal bovine serum). Cells are incubated overnight at 37° C. in an incubator with 5% C02. Then compounds, dissolved in DMSO, are added in dose-response. Cells are incubated with compound dilutions for another 6 days at 37° C. in an incubator with 5% C02. Cell viability is quantitated using the ATPlite kit (Perkin-Elmer) and the luminescence is read-out using an Envision instrument (Perkin-Elmer). The amount of relative light units produced using the ATPlite kit is used to calculated percent of inhibition.
(§2) The activities of some example compounds are depicted in the table below. The activity ranges A, B and C refer to EC50 values in the mesothelioma cell line proliferation assay as described as follows: “A”: EC50<1 μM; “B”: 1 μM s EC50≤10 μM and “C”: EC50≥10 μM; NT: not tested.

The next assay relates to NCI-H226 tumor cells. Description: In vivo efficacy in a subcutaneous human lung cancer xenograft model (NCI-H226 mesothelioma). On the set-up: species or system Female BALB/c Nude Mice. The settings on record: 100 mg/kg, p.o., BID × 21 days. The procedure:
The NCI-H226 tumor cells were maintained in vitro with RPMI-1640 medium supplemented with 10% fetal bovine serum at 37° C. in an atmosphere of 5% CO2 in air. The cells in exponential growth phase were harvested and the cell numbers were quantitated by hemocytometer and cell viability was quantified by Trypan Blue counting before tumor inoculation. Balb/c nude mouse were inoculated with subcutaneously in the right front flank regions with 1×10^7 of NCI-H226 tumor cells in 0.1 mL of PBS mixed with 0.1 ml of Matrigel (1:1) for tumor development. All animals were randomized based on the tumor sizes as well as body weights and randomly allocated to the different study groups (8 mice per group). The randomization started when the mean tumor size at the right rear flank region had reached approximately 172 mm^3. The date of randomization was denoted as Day 0.
Cpd. No. 084 was formulated in Vehicle 1 (PEG400 (40%)+PG (30%)+WFI (30%)) as a 10 mg/ml solution, and dosed orally, twice daily, using 10 μl/g (final dose is 100 mg/kg) for 21 days. Cpd. No. 001 was formulated in Vehicle 2 (PEG400 (65%)+PG (20%)+WFI (15%)) as a 10 mg/ml solution, and dosed orally, twice daily, using 10 μl/g (final dose is 100 mg/kg) for 21 days. After tumor cell inoculation, the animals were checked daily for morbidity and mortality. At the time of routine monitoring, the animals were checked for any effects of tumor growth and treatments on behavior such as mobility, food and water consumption, body weight gain/loss (body weight was measured at least two times per week), and any other abnormalities. Mortality and observed clinical signs were recorded for individual animals. Tumor volumes were measured at least two times weekly in two dimensions using a caliper, and the volume was expressed in mm^3 using the formula: V=(L×W×W)/2, where V is tumor volume, L is tumor length (the longest tumor dimension) and W is tumor width (the longest tumor dimension perpendicular to L).
Tumor growth inhibition (TGI) was used as an indicator of antitumor activities, and was calculated from the relative tumor volumes of the control and treatment groups due to the variance of tumor volumes among groups at Day 0. TGI (%)=(1-T/C)×100%; T/C=MTVt/MTVc, MTVt: mean tumor volume in the treatment groups at a specific measurement day, MTVc: mean tumor volume in the control group at a specific measurement day. Moreover, the difference of TGIs between control and treatment groups was analyzed at a measurement day when all or most of the mice in the control groups were alive. In addition, body weight changes over time in each group were used as an index to evaluate the tolerability of test drugs, and were calculated from the average percentage of body weight changes of each individual mouse relative to their initial body weight at randomization using the following formula: group BW %=mean of ((BWt−BW0)/BW0×100%), BWt: body weight at Day t, BW0: body weight at Day 0.
To compare relative tumor volumes of different groups at a pre-specified day, we first used Bartlett's test to check the assumption of homogeneity of variance across all groups. When the p-value of Bartlett's test is >0.05, we run one-way ANOVA to test overall equality of means across all groups. If the p-value of the one-way ANOVA is <0.05, we further perform post hoc testing by running Tukey's HSD (honest significant difference) tests for all pairwise comparisons, and Dunnett's tests for comparing each treatment group with the vehicle group. When the p-value of Bartlett's test is <0.05, we run Kruskal-Wallis test to test overall equality of medians among all groups. If the p-value of the Kruskal-Wallis test is <0.05, we further perform post hoc testing by running Conover's non-parametric test for all pairwise comparisons or for comparing each treatment group with the vehicle group, both with single-step p-value adjustment. All tests were two-sided unless otherwise specified, and p-values<0.05 were regarded as statistically significant. […]
(In general: Xenograft models place foreign cells or tissue in a host animal.)

The next assay has as its system NCI-1H2052. Kind of assay: Mesothelioma cell line proliferation assay, H2052 (ATPlite). In kind it is cell-based. The settings on record: Homo sapiens, NCI-H2052, 144 h, 6 days with compound, read-out: H2025 (EC50). As for the experimental part: as §1, §2
[2] abbreviates: day 20, against the compound's own vehicle group.

`C=CC(=O)NCC1Cc2ccccc2N(c2ccc(C(F)(F)F)cc2)C1` (stereo not drawn) [compound 084, N-((1-(4-(trifluoromethyl)phenyl)-1,2,3,4-tetrahydroquinolin-3-yl)methyl)acrylamide] returned an IC50 in assay [1] of less than 1000 nM. In addition, the EC50 with NCI-1H226 was less than 1000 nM. In the assay with NCI-H226 tumor cells, the “anti-tumor activity in the xenograft mesothelioma model” value was “highly statistically significant and strong anti-tumor activity”. The “Mean Tumor Volume (mm^3) on day 20” value with NCI-H226 tumor cells (day 20, 8 mice per group) is reported as 165.82 ± 15.42 (8) mm^3. Moreover, in the assay on NCI-H226 tumor cells (setting [2]), the “T/C (%)” value turned out to be 38.95% and the “TGI (%)” value was determined as 61.05%.
`C=CC(=O)NC1Cc2nc(N)ccc2N(c2ccc(C(F)(F)F)cc2)C1` (stereo not drawn) [Cpd. No. 140, N-(6-amino-1-(4-(trifluoromethyl)phenyl)-1,2,3,4-tetrahydro-1,5-naphthyridin-3-yl)acrylamide]: the EC50 in the assay on NCI-1H2052 and in the assay on NCI-1H226 was less than 1000 nM throughout. The molecule further yielded an IC50 in assay [1] of less than 1000 nM.
Regarding `C=CC(=O)NC1Cc2c(CO)cccc2N(c2ccc(C(F)(F)F)cc2)C1` (stereo not drawn) [compound 139, N-(5-(hydroxymethyl)-1-(4-(trifluoromethyl)phenyl)-1,2,3,4-tetrahydroquinolin-3-yl)acrylamide], the EC50 in the assay on NCI-1H2052 and in the assay on NCI-1H226 was less than 1000 nM throughout. This molecule also registered an IC50 in assay [1] of less than 1000 nM.
For the molecule `C=CC(=O)NC(C)C1Cc2ccccc2N(c2ccc(C(F)(F)F)cc2)C1` (stereo not drawn) [Cpd. No. 192, N-(1-(1-(4-(trifluoromethyl)phenyl)-1,2,3,4-tetrahydroquinolin-3-yl)ethyl)acrylamide], the EC50 with NCI-1H2052 and with NCI-1H226 was less than 1000 nM throughout. The IC50 in assay [1] is less than 1000 nM.
`C=CC(=O)NC1Cc2ccccc2N(c2ccc(C(F)(F)F)cc2F)C1` (stereo not drawn) [compound 029, N-(1-(2-fluoro-4-(trifluoromethyl)phenyl)-1,2,3,4-tetrahydroquinolin-3-yl)acrylamide]: the EC50 with NCI-1H2052 and in the assay with NCI-1H226 was less than 1000 nM throughout. For the same molecule, the IC50 in assay [1] is less than 1000 nM.
With `FC(F)(F)c1ccc(N2CC(C3CC(Br)=NO3)Cc3ccccc32)cc1` (stereo not drawn) [Cpd. No. 194, 3-bromo-5-(1-(4-(trifluoromethyl)phenyl)-1,2,3,4-tetrahydroquinolin-3-yl)-4,5-dihydroisoxazole], the EC50 with NCI-1H2052 was no less than 10000 nM; in the assay on NCI-1H226, less than 1000 nM. This molecule registered an IC50 in assay [1] of less than 1000 nM.
Turning to `CC(=O)NCC1Cc2c(N)cccc2N(c2ccc(C(F)(F)F)cc2)C1` (stereo not drawn) [compound 150, N-((5-amino-1-(4-(trifluoromethyl)phenyl)-1,2,3,4-tetrahydroquinolin-3-yl)methyl)acetamide], the EC50 in the assay on NCI-1H2052 and in the assay with NCI-1H226 was less than 1000 nM in each case. This molecule also gave an IC50 in assay [1] of less than 1000 nM.
On to `C=CC(=O)NC1Cc2c(F)cccc2N(c2ccc(C(F)(F)F)cc2)C1` (stereo not drawn) [compound 060, N-(5-fluoro-1-(4-(trifluoromethyl)phenyl)-1,2,3,4-tetrahydroquinolin-3-yl)acrylamide], for which the EC50 in the assay on NCI-1H2052 and with NCI-1H226 was less than 1000 nM each time. In assay [1], this molecule gave an IC50 of less than 1000 nM.
